Measurements reported in patent US7074789B2, “Kinase inhibitors” (Amgen Inc., priority 1999, dated 2006).

Experiments:
Type in all cases: biochemical
Lyn = biological target: T1, Lyn (Homo sapiens, UniProt P07948); assay: Kinase inhibition assay (33P transfer), Lyn; settings: Table 6, Lyn-1 kinase inhibition class
T1 construct: Kinases are expressed as either kinase domains or full length constructs; made in house
Procedure, shortened: (§1)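 Kinase domains or full-length enzymes, GST- or polyHis-tagged, were expressed in E. coli or baculovirus High Five cells and affinity-purified. Transfer of 33PO4 from ATP onto plate-bound poly(Glu,Tyr) 4:1 or poly(Arg,Ser) 3:1 was counted by liquid scintillation after a 0.5% phosphoric acid wash. IC50 = concentration halving incorporation.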

Zap-70 = biological target: T2, Zap-70 (Homo sapiens, UniProt P43403); assay: Kinase inhibition assay (33P transfer), Zap-70; settings: Table 3; read-out: Zap-1
T2 construct: Kinases are expressed as either kinase domains or full length constructs; made in house
T2 sequence (P43403 1-619): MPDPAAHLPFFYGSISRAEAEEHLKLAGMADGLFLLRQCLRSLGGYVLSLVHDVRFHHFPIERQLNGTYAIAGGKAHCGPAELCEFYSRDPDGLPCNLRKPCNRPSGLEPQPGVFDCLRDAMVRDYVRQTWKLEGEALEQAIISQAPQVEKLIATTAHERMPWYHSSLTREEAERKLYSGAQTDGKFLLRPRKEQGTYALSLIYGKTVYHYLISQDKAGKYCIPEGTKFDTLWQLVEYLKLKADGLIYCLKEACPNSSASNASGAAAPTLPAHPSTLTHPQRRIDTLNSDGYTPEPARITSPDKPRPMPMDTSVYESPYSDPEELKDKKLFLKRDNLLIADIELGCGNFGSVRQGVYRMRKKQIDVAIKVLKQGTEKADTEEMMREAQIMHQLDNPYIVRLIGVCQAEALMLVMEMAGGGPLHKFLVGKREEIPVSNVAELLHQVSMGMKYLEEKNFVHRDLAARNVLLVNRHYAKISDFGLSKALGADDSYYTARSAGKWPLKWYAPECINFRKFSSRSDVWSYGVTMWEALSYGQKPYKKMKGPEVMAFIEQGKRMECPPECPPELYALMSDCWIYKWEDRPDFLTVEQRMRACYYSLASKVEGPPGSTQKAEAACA
Procedure, shortened: (§2)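 Enzyme activity is taken as the amount of 33PO4 moved from ATP onto poly(Glu, Tyr) 4:1 or poly(Arg, Ser) 3:1 fixed to the plate surface. Unbound label is removed with 0.5% phosphoric acid before scintillation counting.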

Kdr = biological target: T3, Kdr (Homo sapiens, UniProt P35968); assay: Kinase inhibition assay (33P transfer), Kdr; settings: Table 3; read-out: KDR-1
T3 construct: Kinases are expressed as either kinase domains or full length constructs; made in house
T3 sequence (P35968 20-1356, species assumed): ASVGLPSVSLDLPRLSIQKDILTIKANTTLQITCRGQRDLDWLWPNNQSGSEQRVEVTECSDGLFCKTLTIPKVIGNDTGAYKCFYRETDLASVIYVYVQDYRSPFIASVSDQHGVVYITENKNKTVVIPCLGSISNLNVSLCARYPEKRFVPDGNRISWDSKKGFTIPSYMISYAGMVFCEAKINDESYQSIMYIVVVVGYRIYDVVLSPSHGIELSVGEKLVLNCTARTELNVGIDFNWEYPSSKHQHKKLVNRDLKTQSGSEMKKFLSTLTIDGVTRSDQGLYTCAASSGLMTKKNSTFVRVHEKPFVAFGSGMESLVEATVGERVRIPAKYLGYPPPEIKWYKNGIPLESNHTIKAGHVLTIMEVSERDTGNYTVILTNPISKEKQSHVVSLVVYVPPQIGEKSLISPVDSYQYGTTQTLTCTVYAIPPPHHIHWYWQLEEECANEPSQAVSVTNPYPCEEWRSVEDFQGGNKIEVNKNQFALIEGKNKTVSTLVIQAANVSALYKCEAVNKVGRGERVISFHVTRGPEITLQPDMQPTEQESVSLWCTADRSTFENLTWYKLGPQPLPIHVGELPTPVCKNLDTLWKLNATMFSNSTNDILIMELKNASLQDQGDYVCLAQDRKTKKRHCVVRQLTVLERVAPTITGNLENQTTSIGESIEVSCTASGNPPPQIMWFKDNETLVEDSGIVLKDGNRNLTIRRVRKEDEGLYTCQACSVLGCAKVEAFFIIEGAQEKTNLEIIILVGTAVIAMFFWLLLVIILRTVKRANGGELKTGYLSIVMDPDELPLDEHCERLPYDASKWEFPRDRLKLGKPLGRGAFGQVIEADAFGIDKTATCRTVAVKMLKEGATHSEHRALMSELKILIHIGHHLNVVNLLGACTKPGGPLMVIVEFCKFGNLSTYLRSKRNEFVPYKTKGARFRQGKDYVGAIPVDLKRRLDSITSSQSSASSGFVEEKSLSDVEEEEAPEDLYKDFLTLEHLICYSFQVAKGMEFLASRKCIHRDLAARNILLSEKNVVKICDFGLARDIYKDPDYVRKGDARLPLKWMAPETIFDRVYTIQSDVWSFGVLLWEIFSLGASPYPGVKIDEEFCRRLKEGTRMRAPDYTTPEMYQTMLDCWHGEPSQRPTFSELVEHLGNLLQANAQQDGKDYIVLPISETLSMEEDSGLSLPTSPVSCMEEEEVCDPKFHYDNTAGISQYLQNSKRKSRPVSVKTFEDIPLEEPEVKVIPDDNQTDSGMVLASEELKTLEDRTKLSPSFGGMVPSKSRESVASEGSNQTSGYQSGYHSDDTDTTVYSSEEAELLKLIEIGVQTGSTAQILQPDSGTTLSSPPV
Procedure, shortened: as §2

Tek = biological target: T4, Tek (Homo sapiens, UniProt Q02763); assay: Kinase inhibition assay (33P transfer), Tek; settings: read-out: Tek-1
T4 construct: Kinases are expressed as either kinase domains or full length constructs; made in house
T4 sequence (Q02763 23-1124, species assumed): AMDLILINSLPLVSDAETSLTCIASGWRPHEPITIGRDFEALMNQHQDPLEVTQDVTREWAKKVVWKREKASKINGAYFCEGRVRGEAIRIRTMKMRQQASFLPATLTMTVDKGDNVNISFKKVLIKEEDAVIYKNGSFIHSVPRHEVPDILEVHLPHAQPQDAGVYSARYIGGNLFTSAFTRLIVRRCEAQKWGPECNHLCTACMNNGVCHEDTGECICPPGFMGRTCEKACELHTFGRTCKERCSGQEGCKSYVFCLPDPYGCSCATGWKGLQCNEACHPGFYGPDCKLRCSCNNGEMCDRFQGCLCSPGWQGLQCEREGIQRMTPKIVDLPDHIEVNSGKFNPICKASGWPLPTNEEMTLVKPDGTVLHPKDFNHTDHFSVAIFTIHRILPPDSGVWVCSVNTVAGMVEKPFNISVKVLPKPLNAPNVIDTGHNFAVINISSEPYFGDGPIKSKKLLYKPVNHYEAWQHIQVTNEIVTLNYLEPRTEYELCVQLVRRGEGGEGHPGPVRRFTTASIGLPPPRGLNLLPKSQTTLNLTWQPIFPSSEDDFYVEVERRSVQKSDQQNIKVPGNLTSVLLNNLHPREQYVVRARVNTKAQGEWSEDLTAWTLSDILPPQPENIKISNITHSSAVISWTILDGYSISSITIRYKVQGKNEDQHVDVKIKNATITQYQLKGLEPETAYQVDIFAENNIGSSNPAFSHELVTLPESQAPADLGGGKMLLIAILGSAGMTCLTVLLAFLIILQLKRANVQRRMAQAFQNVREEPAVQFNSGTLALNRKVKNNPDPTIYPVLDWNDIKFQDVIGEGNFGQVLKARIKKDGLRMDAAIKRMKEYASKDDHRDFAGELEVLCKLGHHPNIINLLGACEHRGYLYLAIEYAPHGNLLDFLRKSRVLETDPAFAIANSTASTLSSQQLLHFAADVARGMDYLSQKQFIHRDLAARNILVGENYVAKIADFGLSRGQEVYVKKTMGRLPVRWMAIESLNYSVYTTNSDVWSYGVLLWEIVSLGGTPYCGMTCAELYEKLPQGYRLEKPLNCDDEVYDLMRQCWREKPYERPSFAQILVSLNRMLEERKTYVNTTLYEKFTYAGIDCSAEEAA
Procedure, shortened: as §1

c-Met = biological target: T5, c-Met (Homo sapiens, UniProt P08581); assay: Kinase inhibition assay (33P transfer), c-Met; settings: Table 2, kinase inhibition class; read-out: Met-1
T5 construct: Kinases are expressed as either kinase domains or full length constructs; made in house
T5 sequence (P08581 25-1390): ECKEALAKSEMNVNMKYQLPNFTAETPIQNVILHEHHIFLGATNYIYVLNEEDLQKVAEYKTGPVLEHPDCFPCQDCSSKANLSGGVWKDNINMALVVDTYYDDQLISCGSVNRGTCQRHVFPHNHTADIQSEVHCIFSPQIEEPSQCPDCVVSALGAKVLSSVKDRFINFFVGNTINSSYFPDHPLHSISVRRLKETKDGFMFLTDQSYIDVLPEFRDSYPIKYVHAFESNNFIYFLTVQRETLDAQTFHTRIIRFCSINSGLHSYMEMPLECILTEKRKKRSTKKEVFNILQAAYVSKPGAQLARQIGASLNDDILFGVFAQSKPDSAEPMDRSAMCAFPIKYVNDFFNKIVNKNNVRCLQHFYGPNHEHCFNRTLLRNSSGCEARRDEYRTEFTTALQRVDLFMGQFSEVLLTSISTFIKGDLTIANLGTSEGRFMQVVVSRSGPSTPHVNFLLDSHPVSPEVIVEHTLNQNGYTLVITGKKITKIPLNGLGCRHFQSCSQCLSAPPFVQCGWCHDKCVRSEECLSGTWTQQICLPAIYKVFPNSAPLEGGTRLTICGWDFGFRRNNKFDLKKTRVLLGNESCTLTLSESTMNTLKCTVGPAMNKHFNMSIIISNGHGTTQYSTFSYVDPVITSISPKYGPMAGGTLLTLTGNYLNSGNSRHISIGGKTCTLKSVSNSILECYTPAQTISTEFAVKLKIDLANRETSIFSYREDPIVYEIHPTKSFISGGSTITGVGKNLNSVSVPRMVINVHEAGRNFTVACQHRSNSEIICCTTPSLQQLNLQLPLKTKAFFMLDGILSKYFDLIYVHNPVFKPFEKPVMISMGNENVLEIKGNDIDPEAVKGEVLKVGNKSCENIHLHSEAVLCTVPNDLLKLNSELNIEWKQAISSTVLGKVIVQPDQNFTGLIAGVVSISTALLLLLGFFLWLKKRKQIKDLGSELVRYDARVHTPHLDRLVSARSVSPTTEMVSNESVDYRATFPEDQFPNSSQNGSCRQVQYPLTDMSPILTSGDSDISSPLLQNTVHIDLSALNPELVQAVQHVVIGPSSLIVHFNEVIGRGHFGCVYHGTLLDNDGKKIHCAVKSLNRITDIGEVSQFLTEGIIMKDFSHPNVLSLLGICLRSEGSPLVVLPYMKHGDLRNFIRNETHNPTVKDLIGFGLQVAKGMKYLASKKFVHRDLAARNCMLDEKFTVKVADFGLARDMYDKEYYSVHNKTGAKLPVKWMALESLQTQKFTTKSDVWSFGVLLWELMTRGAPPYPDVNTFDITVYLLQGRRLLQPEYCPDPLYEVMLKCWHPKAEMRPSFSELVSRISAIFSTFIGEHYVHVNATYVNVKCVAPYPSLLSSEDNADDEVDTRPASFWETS
Procedure, shortened: as §1

EPHB4 = biological target: T6, EPHB4 (Homo sapiens, UniProt P54760); assay: Kinase inhibition assay (33P transfer), EPHB4; settings: read-out: EPHB4-1
T6 construct: Kinases are expressed as either kinase domains or full length constructs; made in house
T6 sequence (P54760 16-987): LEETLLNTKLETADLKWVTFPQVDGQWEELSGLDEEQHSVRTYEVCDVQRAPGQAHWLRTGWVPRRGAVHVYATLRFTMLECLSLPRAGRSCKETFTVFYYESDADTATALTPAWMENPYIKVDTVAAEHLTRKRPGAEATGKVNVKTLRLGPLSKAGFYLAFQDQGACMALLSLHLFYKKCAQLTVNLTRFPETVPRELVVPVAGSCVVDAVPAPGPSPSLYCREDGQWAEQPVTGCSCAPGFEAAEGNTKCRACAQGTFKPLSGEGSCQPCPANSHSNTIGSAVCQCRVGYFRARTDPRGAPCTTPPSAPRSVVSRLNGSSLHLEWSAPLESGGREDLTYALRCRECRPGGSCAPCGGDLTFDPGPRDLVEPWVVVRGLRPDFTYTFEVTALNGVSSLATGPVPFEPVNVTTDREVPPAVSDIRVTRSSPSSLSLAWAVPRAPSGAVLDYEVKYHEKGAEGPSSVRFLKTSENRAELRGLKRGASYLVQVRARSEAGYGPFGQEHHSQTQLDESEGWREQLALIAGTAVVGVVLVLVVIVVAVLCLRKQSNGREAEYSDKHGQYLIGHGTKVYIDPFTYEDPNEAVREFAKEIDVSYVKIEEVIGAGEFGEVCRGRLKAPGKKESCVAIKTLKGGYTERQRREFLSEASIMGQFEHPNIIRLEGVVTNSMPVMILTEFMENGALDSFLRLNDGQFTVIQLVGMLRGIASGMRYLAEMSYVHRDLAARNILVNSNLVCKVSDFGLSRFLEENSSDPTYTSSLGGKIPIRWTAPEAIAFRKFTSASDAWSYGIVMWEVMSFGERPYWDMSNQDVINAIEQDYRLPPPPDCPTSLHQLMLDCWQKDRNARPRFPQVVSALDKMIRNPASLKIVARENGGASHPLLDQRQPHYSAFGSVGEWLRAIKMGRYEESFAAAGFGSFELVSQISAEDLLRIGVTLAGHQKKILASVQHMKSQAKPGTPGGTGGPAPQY

Hck-1 = biological target: T7, Hck-1 (Homo sapiens, UniProt P08631); assay: Kinase inhibition assay (33P transfer), Hck; settings: Table 6, Hck-1 kinase inhibition class
T7 construct: Kinases are expressed as either kinase domains or full length constructs; made in house

Ret-1 = biological target: T8, Ret-1 (Homo sapiens, UniProt P07949); assay: Kinase inhibition assay (33P transfer), Ret; settings: Table 6, Ret-1 kinase inhibition class
T8 construct: Kinases are expressed as either kinase domains or full length constructs; made in house
T8 sequence (P07949 29-1114): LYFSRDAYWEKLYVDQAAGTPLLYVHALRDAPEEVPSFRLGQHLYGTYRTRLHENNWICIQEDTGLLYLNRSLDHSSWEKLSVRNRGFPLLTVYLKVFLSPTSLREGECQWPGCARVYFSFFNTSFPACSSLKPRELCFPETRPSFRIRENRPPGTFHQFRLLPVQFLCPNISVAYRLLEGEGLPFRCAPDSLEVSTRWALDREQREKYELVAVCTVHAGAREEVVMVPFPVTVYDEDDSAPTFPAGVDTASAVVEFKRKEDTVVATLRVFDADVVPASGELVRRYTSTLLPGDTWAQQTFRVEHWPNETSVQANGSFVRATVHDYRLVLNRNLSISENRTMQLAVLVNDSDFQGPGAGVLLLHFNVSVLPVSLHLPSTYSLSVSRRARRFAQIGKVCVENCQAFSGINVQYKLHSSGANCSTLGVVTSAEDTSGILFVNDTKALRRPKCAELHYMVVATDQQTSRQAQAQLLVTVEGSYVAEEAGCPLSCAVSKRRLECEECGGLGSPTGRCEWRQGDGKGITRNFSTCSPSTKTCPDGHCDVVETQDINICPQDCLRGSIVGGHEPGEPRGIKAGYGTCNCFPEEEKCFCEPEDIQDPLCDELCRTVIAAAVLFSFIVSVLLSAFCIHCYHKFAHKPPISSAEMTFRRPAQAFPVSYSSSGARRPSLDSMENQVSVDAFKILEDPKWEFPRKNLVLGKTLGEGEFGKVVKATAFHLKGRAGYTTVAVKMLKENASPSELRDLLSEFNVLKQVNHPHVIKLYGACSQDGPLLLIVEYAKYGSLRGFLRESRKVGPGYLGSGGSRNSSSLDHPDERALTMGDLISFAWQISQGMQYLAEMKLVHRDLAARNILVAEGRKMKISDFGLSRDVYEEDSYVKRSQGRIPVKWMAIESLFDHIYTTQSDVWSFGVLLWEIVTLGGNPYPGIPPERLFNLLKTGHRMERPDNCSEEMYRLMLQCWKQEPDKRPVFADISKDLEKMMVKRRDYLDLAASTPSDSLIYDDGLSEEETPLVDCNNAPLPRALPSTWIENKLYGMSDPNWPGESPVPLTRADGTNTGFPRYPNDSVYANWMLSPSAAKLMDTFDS

FGFR1 = biological target: T9, FGFR1 (Homo sapiens, UniProt P11362); assay: Kinase inhibition assay (33P transfer), FGFR1; settings: read-out: FGFR1-1
T9 construct: Kinases are expressed as either kinase domains or full length constructs; made in house

Compound `COCCOc1ccc(Nc2ncnc(Nc3ccc4[nH]ccc4c3)n2)cc1OCCOC` [Compound 321] has an IC50 (Lyn) of under 0.888 µM, an IC50 (Zap-70) of over 9.99 µM and an IC50 (Kdr) of under 0.888 µM. For the same compound, the IC50 (Tek) was over 9.99 µM, the IC50 (c-Met) was over 9.99 µM and the IC50 (EPHB4) was over 9.99 µM. For the same compound, the IC50 (Hck-1) was over 9.99 µM, the IC50 (Ret-1) was 0.888 to 5.33 µM and the IC50 (FGFR1) was over 9.99 µM.

Work on `COc1cc(Nc2ncnc(-c3ccccc3)n2)cc(OC)c1OC` [Compound 970] yielded an IC50 (Lyn) of over 13.3 µM, an IC50 (Zap-70) of over 13.3 µM and an IC50 (Kdr) of under 1.18 µM. It also gave an IC50 (Tek) of over 13.3 µM, an IC50 (c-Met) of over 13.3 µM and an IC50 (EPHB4) of over 13.3 µM. It also gave an IC50 (Hck-1) of over 13.3 µM, an IC50 (Ret-1) of over 13.3 µM and an IC50 (FGFR1) of over 13.3 µM.

`COc1cc(Nc2ncnc(N(CC(=O)O)c3ccc4c(c3)OCO4)n2)cc(OC)c1OC` [Compound 319] showed an IC50 (Lyn) of over 9.88 µM, an IC50 (Zap-70) of over 9.88 µM and an IC50 (Kdr) of over 9.88 µM. The IC50 (Tek) was over 9.88 µM, the IC50 (c-Met) was over 9.88 µM and the IC50 (EPHB4) was over 9.88 µM. It also gave an IC50 (Hck-1) of over 9.88 µM, an IC50 (Ret-1) of over 9.88 µM and an IC50 (FGFR1) of over 9.88 µM.

With `COc1ccc(Nc2ncnc(N(CC(=O)O)c3ccc4c(c3)OCO4)n2)cc1OC` [Compound 320] the IC50 (Lyn) was over 10.6 µM, the IC50 (Zap-70) was 8.23 to 10.6 µM and the IC50 (Kdr) was 5.64 to 8.23 µM. For the same compound, the IC50 (Tek) was over 10.6 µM, the IC50 (c-Met) was 5.64 to 8.23 µM and the IC50 (EPHB4) was over 10.6 µM. It also gave an IC50 (Hck-1) of over 10.6 µM, an IC50 (Ret-1) of over 10.6 µM and an IC50 (FGFR1) of over 10.6 µM.

With `COc1cc(Nc2ncnc(-n3c(=O)[nH]c4ccccc43)n2)cc(OC)c1OC` [Compound 325] the IC50 (Lyn) was 8.87 to 11.4 µM, the IC50 (Zap-70) was over 11.4 µM and the IC50 (Kdr) was under 1.01 µM. It also gave an IC50 (Tek) of over 11.4 µM, an IC50 (c-Met) of over 11.4 µM and an IC50 (EPHB4) of over 11.4 µM. It also gave an IC50 (Hck-1) of over 11.4 µM, an IC50 (Ret-1) of over 11.4 µM and an IC50 (FGFR1) of over 11.4 µM.

`COc1ccc(Nc2ncnc(Nc3cc(OC)c(OC)c(OC)c3)n2)cc1OC` [Compound 36] was tested, and the IC50 (Lyn) was over 10.9 µM, the IC50 (Zap-70) was over 10.9 µM and the IC50 (Kdr) was under 0.968 µM. It also gave an IC50 (Tek) of 8.47 to 10.9 µM, an IC50 (c-Met) of over 10.9 µM and an IC50 (EPHB4) of 8.47 to 10.9 µM. It also gave an IC50 (Hck-1) of over 10.9 µM, an IC50 (Ret-1) of over 10.9 µM and an IC50 (FGFR1) of over 10.9 µM.

`COc1cc(Nc2ncnc(Nc3nc4ccccc4n3C)n2)cc(OC)c1OC` [Compound 938] was tested, and the IC50 (Lyn) was over 11 µM, the IC50 (Zap-70) was over 11 µM and the IC50 (Kdr) was under 0.982 µM. For the same compound, the IC50 (Tek) was over 11 µM, the IC50 (c-Met) was over 11 µM and the IC50 (EPHB4) was over 11 µM. It also gave an IC50 (Hck-1) of over 11 µM, an IC50 (Ret-1) of over 11 µM and an IC50 (FGFR1) of 0.982 to 5.89 µM.

Compound `COc1ccc(Nc2ncnc(N(C/C=C/c3ccccc3)c3ccc(Cl)cc3)n2)cc1OC` [Compound 974] has an IC50 (Lyn) of 5.06 to 7.38 µM, an IC50 (Zap-70) of over 9.49 µM and an IC50 (Kdr) of 0.844 to 5.06 µM. For the same compound, the IC50 (Tek) was over 9.49 µM, the IC50 (c-Met) was over 9.49 µM and the IC50 (EPHB4) was over 9.49 µM. For the same compound, the IC50 (Hck-1) was over 9.49 µM, the IC50 (Ret-1) was over 9.49 µM and the IC50 (FGFR1) was 5.06 to 7.38 µM.

With `COc1cc(Nc2ncnc(-n3c(NC(C)=O)nc4ccccc43)n2)cc(OC)c1OC` [Compound 334] the IC50 (Lyn) was over 10.3 µM, the IC50 (Zap-70) was over 10.3 µM and the IC50 (Kdr) was 0.919 to 5.51 µM. For the same compound, the IC50 (Tek) was over 10.3 µM, the IC50 (c-Met) was over 10.3 µM and the IC50 (EPHB4) was 5.51 to 8.04 µM. It also gave an IC50 (Hck-1) of over 10.3 µM, an IC50 (Ret-1) of 0.919 to 5.51 µM and an IC50 (FGFR1) of 0.919 to 5.51 µM.

With `COc1cc(Nc2ncnc(Nc3cc(F)ccc3F)n2)cc(OC)c1OC` [Compound 316] the IC50 (Lyn) was 1.03 to 6.16 µM, the IC50 (Zap-70) was over 11.6 µM and the IC50 (Kdr) was under 1.03 µM. For the same compound, the IC50 (Tek) was over 11.6 µM, the IC50 (c-Met) was over 11.6 µM and the IC50 (EPHB4) was 8.99 to 11.6 µM. It also gave an IC50 (Hck-1) of over 11.6 µM, an IC50 (Ret-1) of 1.03 to 6.16 µM and an IC50 (FGFR1) of over 11.6 µM.
